Read-outs that look alike come from different tables or passages of the source. Starred links: 1 amine or outer side, 2 acyl side, 3 side chain; linkers in the order of their positions; H or OH if unused. Positions of bridges follow the written chain, without caps; N, C: chain ends. Residues, ends and D or L forms follow the SMILES beside them. Groups on a side chain read outwards from the residue. *: point of attachment. C18 diacid = O=C(O)CCCCCCCCCCCCCCCCC(=O)*; γGlu = O=C(O)[C@H](CCC(=O)[*:2])N[*:1]; AEEA = NCCOCCOCC(=O)O
Target: T1, human calcitonin receptor (Homo sapiens, UniProt P30988)
T1 construct: expressed in transfected cells; CRE-luciferase reporter
T1 sequence (P30988 25-474): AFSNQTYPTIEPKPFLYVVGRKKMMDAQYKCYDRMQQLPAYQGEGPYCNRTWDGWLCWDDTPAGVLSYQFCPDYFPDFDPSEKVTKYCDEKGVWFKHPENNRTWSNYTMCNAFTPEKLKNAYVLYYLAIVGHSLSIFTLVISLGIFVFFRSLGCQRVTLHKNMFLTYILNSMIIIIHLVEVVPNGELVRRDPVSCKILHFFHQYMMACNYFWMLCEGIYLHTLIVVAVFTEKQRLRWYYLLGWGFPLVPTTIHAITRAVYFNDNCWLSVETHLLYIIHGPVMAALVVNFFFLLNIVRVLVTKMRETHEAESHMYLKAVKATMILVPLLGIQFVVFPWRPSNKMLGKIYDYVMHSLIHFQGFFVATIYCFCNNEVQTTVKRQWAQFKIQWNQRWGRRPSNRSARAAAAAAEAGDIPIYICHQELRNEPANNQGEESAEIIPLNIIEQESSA
Assay: Assay (II)a functional assay, human calcitonin receptor (CRE luciferase reporter in BHK cells)
Assay type: cell-based
From the text: 1. Luciferase Assay Outline
Activation of calcitonin and amylin (coexpression of calcitonin receptor and receptor activity modifying proteins (RAMP)) receptors lead to increased intracellular concentrations of cAMP. Consequently, transcription is activated by promoters containing multiple copies of the cAMP response element (CRE). It is thus possible to measure amylin activity by the use of a CRE luciferase reporter gene introduced into BHK cells also expressing calcitonin or amylin receptors.
A BHK570 cell line was stably transfected with the human calcitonin receptor and a CRE-responsive luciferase reporter gene. The cell line was further transfected with RAMP-3, using standard methods. This turns the calcitonin receptor into an amylin 3(a) receptor. Methotrexate, Neomycin, and Hygromycin are selection markers for luciferase, the calcitonin receptor, and RAMP-3, respectively.
To perform activity assays, BHK calcitonin (a) receptor- or amylin 3(a)-receptor/CRE-luc cells were seeded in white 96 well culture plates at a density of about 20.000 cells/well. […] After incubation overnight at 37° C. and 5% CO2, the growth medium was replaced by 50 μl/well assay medium (DMEM (without phenol red), Glutamax™, 10% FBS, and 10 mM Hepes, pH 7.4). Further, 50 μl/well of standard or sample in assay buffer were added. After 3 hours incubation at 37° C. and 5% CO2, the assay medium with standard or sample were removed and replaced by 100 μl/well PBS. Further, 100 μl/well LucLite™ was added. The plates were sealed and incubated at room temperature for 30 minutes. Finally, luminescence was measured on a TopCounter (Packard) in SPC (single photon counting) mode.

EC50 (Table 7, human calcitonin (CTa) receptor): 0.216 nM
EC50 (Table 11, human calcitonin receptor, read-out: CTa receptor human EC50): 0.216 nM
Structure (SMILES): CC[C@H](C)[C@H](NC(=O)[C@@H]1CCCN1C(=O)CNC(=O)[C@H](Cc1ccccc1)NC(=O)[C@H](CC(N)=O)NC(=O)[C@H](CCCCNC(=O)COCCOCCNC(=O)COCCOCCNC(=O)CC[C@H](NC(=O)CCCCCCCCCCCCCCCCC(=O)O)C(=O)O)NC(=O)[C@H](CO)NC(=O)[C@H](CO)NC(=O)[C@H](Cc1c[nH]cn1)NC(=O)[C@H](Cc1c[nH]cn1)NC(=O)[C@H](CC(C)C)NC(=O)[C@H](Cc1ccccc1)NC(=O)[C@H](CCC(=O)O)NC(=O)[C@H](C)NC(=O)[C@H](CC(C)C)NC(=O)[C@H](CCCNC(=N)N)NC(=O)[C@H](CCC(N)=O)NC(=O)[C@@H](NC(=O)[C@H](C)NC(=O)[C@@H]1CSSC[C@H](NC(=O)[C@@H](N)CCCCN)C(=O)N[C@@H](CC(N)=O)C(=O)N[C@@H]([C@@H](C)O)C(=O)N[C@@H](C)C(=O)N[C@@H]([C@@H](C)O)C(=O)N1)[C@@H](C)O)C(=O)N[C@@H](CC(C)C)C(=O)N1CCC[C@H]1C(=O)N1CCC[C@H]1C(=O)N[C@H](C(=O)N[C@@H](CC(N)=O)C(=O)N[C@H](C(=O)NCC(=O)N[C@@H](CO)C(=O)N[C@@H](CCC(=O)O)C(=O)N[C@H](C(=O)N[C@@H](Cc1ccc(O)cc1)C(N)=O)[C@@H](C)O)C(C)C)[C@@H](C)O [Example 74, N-epsilon21-[2-(2-{2-[2-(2-{2-[(S)-4-Carboxy-4-(17-carboxyheptadecanoylamino)butyrylamino]ethoxy}ethoxy)acetylamino]ethoxy}ethoxy)acetyl]-[Glu14,His17,Lys21,Glu35]-pramlintide] (H-KCNTATCATQRLAEFLHHSSK([AEEA-AEEA-γGlu-C18 diacid])NFGPILPPTNVGSETY-NH2; disulfide 2-7 (inferred); N-terminus and C-terminus assumed)

From patent US8741836B2, “Polypeptides” (Novo Nordisk A/S, priority 2011, dated 2014)
